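These data come from cells grown in 96-well plates and exposed to compound for 48 hours at five concentrations. TGI: concentration producing complete growth inhibition.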
Columns and labels:
Assay in all cases: DTP human tumour cell line panel, 48 h
[1] = test system: 786-0 renal
[2] = test system: A498 renal
[3] = test system: A549 NSCLC
[4] = test system: ACHN renal
[5] = test system: CAKI-1 renal
[6] = test system: CCRF-CEM leukemia
[7] = test system: COLO 205 colon
[8] = test system: DLD-1 colon
[9] = test system: DMS 114 small cell lung
[10] = test system: DMS 273 small cell lung
[11] = test system: EKVX NSCLC
[12] = test system: HCC-2998 colon
[13] = test system: HCT-116 colon
[14] = test system: HCT-15 colon
[15] = test system: HOP-18 NSCLC
[16] = test system: HOP-62 NSCLC
[17] = test system: HT29 colon
[18] = test system: IGROV1 ovarian
[19] = test system: K-562 leukemia
[20] = test system: KM12 colon
[21] = test system: KM20L2 colon
[22] = test system: LOX IMVI melanoma
[23] = test system: LXFL 529 NSCLC
[24] = test system: M14 melanoma
[25] = test system: M19-MEL melanoma
[26] = test system: MALME-3M melanoma
[27] = test system: MOLT-4 leukemia
[28] = test system: NCI-H226 lung
[29] = test system: NCI-H23 lung
[30] = test system: NCI-H460 lung
[31] = test system: NCI-H522 lung
[32] = test system: OVCAR-3 ovarian
[33] = test system: OVCAR-4 ovarian
[34] = test system: OVCAR-5 ovarian
[35] = test system: OVCAR-8 ovarian
[36] = test system: RPMI-8226 leukemia
[37] = test system: RXF 393 renal
[38] = test system: RXF-631 renal
[39] = test system: SF-268 CNS
[40] = test system: SF-295 CNS
[41] = test system: SF-539 CNS
[42] = test system: SK-MEL-2 melanoma
[43] = test system: SK-MEL-28 melanoma
[44] = test system: SK-MEL-5 melanoma
[45] = test system: SK-OV-3 ovarian
[46] = test system: SN12C renal
[47] = test system: SNB-19 CNS
[48] = test system: SNB-75 CNS
[49] = test system: SNB-78 CNS
[50] = test system: SR leukemia
[51] = test system: SW-620 colon
[52] = test system: TK-10 renal
[53] = test system: U251 CNS
[54] = test system: UACC-257 melanoma
[55] = test system: UACC-62 melanoma
[56] = test system: UO-31 renal

Measured: TGI

CN1C(=O)N(C)C2(O)c3ccccc3C(=O)C12O (stereo unspecified)
> 100 µM: all assays above

— PubChem BioAssay (NCI)
